Type in all cases: in vivo
One assay relates to Alternaria solani. Put plainly: Tomato early blight (ALTESO) disease control. Conditions: 24 h, 1 Day Protectant, read-out: ALTESO disease control rating. How it is done:
Technical grades of materials were dissolved in acetone, which were then mixed with nine volumes of water containing 110 ppm Triton X-100. The fungicide solutions were applied onto wheat seedlings using an automated booth sprayer to run-off. All sprayed plants were allowed to air dry prior to further handling. All fungicides were evaluated using the aforementioned method for their activity vs. all target diseases. Wheat leaf blotch and brown rust activity were also evaluated using track spray applications, in which case the fungicides were formulated as EC formulations, containing 0.1% Trycol 5941 in the spray solutions. Wheat plants (variety Yuma) were grown from seed in a greenhouse in 50% mineral soil/50% soil-less Metro mix until the first leaf was fully emerged, with 7-10 seedlings per pot. These plants were inoculated with an aqueous spore suspension of Septoria tritici either prior to or after fungicide treatments. After inoculation the plants were kept in 100% relative humidity (one day in a dark dew chamber followed by two to three days in a lighted dew chamber at 20° C.) to permit spores to germinate and infect the leaf. The plants were then transferred to a greenhouse set at 20° C. for disease to develop. When disease symptoms were fully expressed on the l^st leaves of untreated plants, infection levels were assessed on a scale of 0 to 100 percent disease severity. Percent disease control was calculated using the ratio of disease severity on treated plants relative to untreated plants. Evaluation of Fungicidal Activity: Tomato Early Blight (Alternaria solani; Bayer Code […]) Tomato plants (variety Outdoor girl) were propagated in soil-less Metro mix, with each pot having one plant, and used when 12 to 14 days old. Test plants were inoculated with an aqueous spore suspension of Alternaria solani 24 hr after fungicide treatments. After inoculation the plants were kept in 100% relative humidity (one day in a dark dew chamber followed by two to three days in a lighted dew chamber at 20° C.) to permit spores to germinate and infect the leaf. The plants were then transferred to a growth room at 22° C. for disease to develop. Fungicide formulation, application and disease assessment on the sprayed leaves followed the procedures as described in the Example A.

The test system of a further assay is Rhyncosporium secalis. Put plainly: Barley scald (RHYNSE) disease control. Conditions: Hordeum vulgare, 24 h, 1 Day Protectant, read-out: RHYNSE disease control rating. Here is the method: Technical grades of materials were dissolved in acetone, which were then mixed with nine volumes of water containing 110 ppm Triton X-100. The fungicide solutions were applied onto wheat seedlings using an automated booth sprayer to run-off. All sprayed plants were allowed to air dry prior to further handling. All fungicides were evaluated using the aforementioned method for their activity vs. all target diseases. Wheat leaf blotch and brown rust activity were also evaluated using track spray applications, in which case the fungicides were formulated as EC formulations, containing 0.1% Trycol 5941 in the spray solutions. Wheat plants (variety Yuma) were grown from seed in a greenhouse in 50% mineral soil/50% soil-less Metro mix until the first leaf was fully emerged, with 7-10 seedlings per pot. These plants were inoculated with an aqueous spore suspension of Septoria tritici either prior to or after fungicide treatments. After inoculation the plants were kept in 100% relative humidity (one day in a dark dew chamber followed by two to three days in a lighted dew chamber at 20° C.) to permit spores to germinate and infect the leaf. The plants were then transferred to a greenhouse set at 20° C. for disease to develop. When disease symptoms were fully expressed on the l^st leaves of untreated plants, infection levels were assessed on a scale of 0 to 100 percent disease severity. Percent disease control was calculated using the ratio of disease severity on treated plants relative to untreated plants. Evaluation of Fungicidal Activity: Barley Scald (Rhyncosporium secalis; Bayer code […]) Barley seedlings (variety Harrington) were propagated in soil-less Metro mix, with each pot having 8 to 12 plants, and used in the test when first leaf was fully emerged. Test plants were inoculated by an aqueous spore suspension of Rhyncosporium secalis 24 hr after fungicide treatments. After inoculation the plants were kept in a dew room at 20° C. with 100% relative humidity for 48 hr. The plants were then transferred to a greenhouse set at 20° C. for disease to develop. Fungicide formulation, application and disease assessment on the sprayed leaves followed the procedures as described in the Example A.

The next assay concerns Puccinia triticina. Nature of the assay: Wheat brown rust (PUCCRT) disease control on wheat seedlings. The settings on record: for pest or weed control at 121.5 g/ha: 121.5 g/H (low volume track spray); for pest or weed control at 100 ppm: 100 ppm (high volume). Here is the method:
Technical grades of materials were dissolved in acetone, which were then mixed with nine volumes of water containing 110 ppm Triton X-100. The fungicide solutions were applied onto wheat seedlings using an automated booth sprayer to run-off. All sprayed plants were allowed to air dry prior to further handling. All fungicides were evaluated using the aforementioned method for their activity vs. all target diseases. Wheat leaf blotch and brown rust activity were also evaluated using track spray applications, in which case the fungicides were formulated as EC formulations, containing 0.1% Trycol 5941 in the spray solutions. Wheat plants (variety Yuma) were grown from seed in a greenhouse in 50% mineral soil/50% soil-less Metro mix until the first leaf was fully emerged, with 7-10 seedlings per pot. These plants were inoculated with an aqueous spore suspension of Septoria tritici either prior to or after fungicide treatments. After inoculation the plants were kept in 100% relative humidity (one day in a dark dew chamber followed by two to three days in a lighted dew chamber at 20° C.) to permit spores to germinate and infect the leaf. The plants were then transferred to a greenhouse set at 20° C. for disease to develop. When disease symptoms were fully expressed on the l^st leaves of untreated plants, infection levels were assessed on a scale of 0 to 100 percent disease severity. Percent disease control was calculated using the ratio of disease severity on treated plants relative to untreated plants. Evaluation of Fungicidal Activity: Wheat Brown Rust (Puccinia triticina; Synonym: Puccinia recondite f sp. tritici; Bayer code PUCCRT) Wheat plants (variety Yuma) were grown from seed in a greenhouse in 50% mineral soil/50% soil-less Metro mix until the first leaf was fully emerged, with 7-10 seedlings per pot. These plants were inoculated with an aqueous spore suspension of Puccinia triticina either prior to or after fungicide treatments. After inoculation the plants were kept in a dark dew room at 22° C. with 100% relative humidity overnight to permit spores to germinate and infect the leaf. The plants were then transferred to a greenhouse set at 24° C. for disease to develop. Fungicide formulation, application and disease assessment followed the procedures as described in the Example A.

Assay [1] concerns Magnaporthe grisea; Anamorph: Pyricularia oryzae. The settings on record: 1 Day Protectant, 100 ppm, rice.
[2] abbreviates: 24 h, 1 Day Protectant, read-out: PUCCRT 1DP disease control rating.
Setting [3] is: 72 h, 3 Day Curative, read-out: PUCCRT 3DC disease control rating.

Like-named read-outs stand apart in the source and are kept apart here. Bounds are passed on as bounds.

Consider `CCCO[C@H]1CCC[C@H](NC(=O)c2nccc(OC)c2OCOC(C)=O)C(=O)O[C@@H](C)[C@@H]1CCC(C)C` [Compound 25, ((2-(((3S,7S,8S,9S)-8-isopentyl-9-methyl-2-oxo-7-propoxyoxonan-3-yl)carbamoyl)-4-methoxypyridin-3-yl)oxy)methyl acetate], for which the pest or weed control at 100 ppm with Alternaria solani and with Rhyncosporium secalis was > 70% in each case. Besides, the pest or weed control at 121.5 g/ha in the assay with Puccinia triticina (setting [2]) and in the assay on Puccinia triticina (setting [3]) was > 70% each time.

For the molecule `COc1ccnc(C(=O)N[C@H]2CCC[C@H](OCC3CC3)[C@@H](Cc3ccc(F)cc3)[C@H](C)OC2=O)c1OCOC(C)=O` [Compound 61], the pest or weed control at 100 ppm with Alternaria solani was < 70%; with Rhyncosporium secalis, > 70%. The “PYRIOR disease control rating” value in assay [1] was “A (>70)”. Besides, the pest or weed control at 121.5 g/ha with Puccinia triticina (setting [2]) and in the assay with Puccinia triticina (setting [3]) was > 70% in each case.

Consider `CCCO[C@H]1CCC[C@H](NC(=O)c2nccc(OC)c2OC(C)=O)C(=O)O[C@@H](C)[C@@H]1CCC(C)C` [Compound 74, 2-(((3S,7S,8S,9S)-8-isopentyl-9-methyl-2-oxo-7-propoxyoxonan-3-yl)carbamoyl)-4-methoxypyridin-3-yl acetate], for which the pest or weed control at 100 ppm with Alternaria solani and with Rhyncosporium secalis was > 70% each time. In assay [1], the “PYRIOR disease control rating” value is on record as “A (>70)”. Besides, the pest or weed control at 121.5 g/ha with Puccinia triticina (setting [2]) and in the assay with Puccinia triticina (setting [3]) was > 70% in each case.

As for `COc1ccnc(C(=O)N[C@H]2CCC[C@H](Oc3ccccc3)[C@@H](CCC(C)C)[C@H](C)OC2=O)c1OCOC(C)=O` [Compound 40], the pest or weed control at 100 ppm with Alternaria solani and in the assay on Rhyncosporium secalis was > 70% each time. In addition, the “PYRIOR disease control rating” value in assay [1] is on record as “A (>70)”. The pest or weed control at 121.5 g/ha in the assay on Puccinia triticina (setting [2]) and in the assay with Puccinia triticina (setting [3]) was > 70% each time.

As to `CCCC[C@H]1[C@H](C)OC(=O)[C@@H](NC(=O)c2nccc(OC)c2OCOC(C)=O)CCC[C@@H]1OCC1CC1` [Compound 73], the results for the pest or weed control at 100 ppm in the assay with Alternaria solani and in the assay on Rhyncosporium secalis were < 70% and > 70%, respectively. Besides, the “PYRIOR disease control rating” value in assay [1] is “A (>70)”. Besides, the pest or weed control at 121.5 g/ha in the assay with Puccinia triticina (setting [2]) and in the assay with Puccinia triticina (setting [3]) was > 70% each time.

In the case of `COc1ccnc(C(=O)N[C@H]2CCC[C@H](Oc3ccccc3)[C@@H](CCC(C)C)[C@H](C)OC2=O)c1OC(C)=O` [Compound 36], the pest or weed control at 100 ppm in the assay with Alternaria solani and in the assay on Rhyncosporium secalis was > 70% in each case. Further, the pest or weed control at 121.5 g/ha in the assay on Puccinia triticina (setting [2]) was > 70%; with Puccinia triticina (setting [3]), < 70%.

As for `CCCO[C@H]1CCC[C@H](NC(=O)c2nccc(OC)c2OC(C)=O)C(=O)O[C@@H](C)[C@@H]1Cc1ccccc1` [Compound 70], the pest or weed control at 100 ppm in the assay on Alternaria solani, in the assay with Rhyncosporium secalis, in the assay on Puccinia triticina (setting [2]) and in the assay on Puccinia triticina (setting [3]) was > 70% each time. In addition, the “PYRIOR disease control rating” value in assay [1] was “A (>70)”. Besides, the pest or weed control at 121.5 g/ha in the assay with Puccinia triticina (setting [2]) and with Puccinia triticina (setting [3]) was > 70% throughout.

In the case of `CCCC[C@H]1[C@H](C)OC(=O)[C@@H](NC(=O)c2nccc(OC)c2OCOC(C)=O)CCC[C@@H]1Oc1ccccc1` [Compound 33], the pest or weed control at 100 ppm with Alternaria solani and in the assay with Rhyncosporium secalis was > 70% each time. In addition, the “PYRIOR disease control rating” value in assay [1] is “A (>70)”. Besides, the pest or weed control at 121.5 g/ha in the assay on Puccinia triticina (setting [2]) and with Puccinia triticina (setting [3]) was > 70% throughout.

(Values after US9247741B2, “Use of macrocyclic picolinamides as fungicides” (DOW AGROSCIENCES LLC, priority 2013, dated 2016).)
